Source: US6440401B1, “2-phenyl-benzimidazolesulfonic acids as UV-B filters” (Merck Patent Gesellschaft Mit Beschraenkter Haftung, priority 2000, dated 2002)

Assay: UV absorption maximum
Type: physicochemical
Method: 108 parts of o-phenylenediamine are introduced into 500 parts of H2SO4 (>96%) and then 800 parts of oleum (65%) are added dropwise, the temperature being maintained at a maximum of 120° C. After 15 min, the mixture is cooled to 70° C. and 120 parts of benzoic acid are added. The mixture is heated for 2 h at 180° C. The mixture is slowly hydrolysed with 2 500 parts of water, the temperature being maintained below 10° C. The precipitate (crystals) is filtered off with suction, the crude product is suspended in 8 parts of water and dissolved with 32% sodium hydroxide solution at pH=7. The solution is stirred with activated carbon until colorless, and thereafter precipitation is induced using 96% H2SO4 by establishing a pH=1-2. 300 parts of 2-phenylbenzimidazole-4,6-disulfonic acid are obtained. The compound has an absorption maximum in the UV-B region at λmax=308 nm.

absorption maximum in the UV-B region, λmax: 308 nm
Compound: O=S(=O)(O)c1cc(S(=O)(=O)O)c2[nH]c(-c3ccccc3)nc2c1 [2-phenylbenzimidazole-4,6-disulfonic acid]
